Activity calls are given as the source filed them.
Key:
[1] = biological target: T1, Hepatocyte nuclear factor 4-alpha (Homo sapiens, UniProt P41235); format: functional, cell-based;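 note: biochemical luminescence-based dose-response counterscreen measuring inhibition of HNF4 dimerization, run alongside a screen for blockers of ABHD5–perilipin-5 interaction; split luciferase complementation of HNF4 fusion proteins in cell lysate measuring dimerization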
T1 sequence (P41235 whole entry): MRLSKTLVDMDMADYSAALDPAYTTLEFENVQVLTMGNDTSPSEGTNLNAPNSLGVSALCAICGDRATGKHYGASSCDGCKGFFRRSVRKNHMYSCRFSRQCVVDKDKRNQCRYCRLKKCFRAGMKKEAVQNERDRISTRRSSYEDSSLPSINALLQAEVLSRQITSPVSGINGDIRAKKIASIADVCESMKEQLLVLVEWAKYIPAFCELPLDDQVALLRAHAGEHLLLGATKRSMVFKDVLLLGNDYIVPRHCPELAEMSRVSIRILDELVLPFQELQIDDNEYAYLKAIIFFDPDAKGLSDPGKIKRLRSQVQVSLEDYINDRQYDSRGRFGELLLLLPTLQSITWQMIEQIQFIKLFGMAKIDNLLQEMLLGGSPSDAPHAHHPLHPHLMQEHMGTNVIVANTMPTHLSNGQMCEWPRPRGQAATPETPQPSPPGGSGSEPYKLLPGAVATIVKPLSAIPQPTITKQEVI

[2] = biological target: T2, Carboxy-terminal domain RNA polymerase II polypeptide A small phosphatase 1 (Homo sapiens, UniProt Q9GZU7); test: inhibitors of CTDSP1, concentration-response testing, biochemical assay, absorbance-based, actives from ultra-high-throughput screening (AID 540297); format: functional
T2 sequence (Q9GZU7 whole entry): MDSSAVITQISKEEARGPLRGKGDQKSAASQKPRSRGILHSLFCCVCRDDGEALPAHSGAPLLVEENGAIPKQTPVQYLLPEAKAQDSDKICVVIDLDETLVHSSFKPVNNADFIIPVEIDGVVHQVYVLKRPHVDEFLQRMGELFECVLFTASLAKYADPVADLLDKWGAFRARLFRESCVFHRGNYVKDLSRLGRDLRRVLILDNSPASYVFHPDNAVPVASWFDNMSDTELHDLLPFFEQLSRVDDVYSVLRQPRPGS

[3] = growth suppression of PTEN-null colon cells, dose response, cell-based, HCT116 PTEN knockout (AID 1047); format: functional;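 note: HCT116 colon tumor cells with PTEN knocked out; cells exposed to compound for 60 hours before readout; potency for loss of cell viability measured by luminescence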
[4] = growth suppression of beta-catenin-knockout colon cells, dose response, cell-based, HCT116, human colon tumor (AID 1045); format: functional;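 note: HCT116 colon tumor cells with beta catenin knocked out; cells exposed to compound for 60 hours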
[5] = biological target: T3, Low molecular weight phosphotyrosine protein phosphatase (Homo sapiens, UniProt P24666); format: functional; details: read-out: IC50_Mean;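 note: Dose-response confirmation assay measuring inhibition of LMPTP enzyme activity by fluorescence intensity read-out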
T3 sequence (P24666 whole entry): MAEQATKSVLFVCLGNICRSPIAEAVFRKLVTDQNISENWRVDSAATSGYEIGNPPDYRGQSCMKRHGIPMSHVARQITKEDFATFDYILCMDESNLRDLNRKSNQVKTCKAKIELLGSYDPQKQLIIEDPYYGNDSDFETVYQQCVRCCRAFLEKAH

[6] = P. falciparum Dd2 growth inhibitors, dose response, SYBR Green, dry powder samples (AID 1159566); format: functional, cell-based;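 note: potency for growth inhibition with lower SYBR green DNA signal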
[7] = P. falciparum ATP4 D1247Y mutant growth inhibitors, dose response, NITD609-resistant line, SYBR Green, dry powder (AID 1159571); format: functional, cell-based;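 note: parasites synchronized at ring stage by sorbitol before testing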
[8] = P. falciparum 3D7-ScDHODH growth inhibitors, dose response, SYBR Green, dry powder samples (AID 1159570); format: functional, cell-based;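 note: parasite growth measured after 72 hours of compound exposure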
[9] = HepG2 cell cytotoxicity, dose response, cytotoxicity control, cherry-picked samples (AID 1159577); format: functional, cell-based
[10] = P. falciparum Dd2 growth inhibitors, dose response, SYBR Green, cherry-picked samples (AID 1159567); format: functional, cell-based
[11] = HepG2 cell cytotoxicity, dose response, cytotoxicity control, plate reader, dry powder samples (AID 1159569); format: functional, cell-based;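 note: inhibitor potency with signal falling toward the positive control level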

| SMILES | AC50 [6] | AC50 [7] | AC50 [8] | AC50 [9] | AC50 [10] | also measured |
| --- | --- | --- | --- | --- | --- | --- |
| Cc1cccc(C)c1NC(=O)C(c1ccccc1F)n1c(=O)c(-c2ccco2)nc2ccccc21 (stereo not given) |  |  |  |  |  | IC50 [1]: 2.48 µM (active) |
| O=C(N/N=C/c1cccc([N+](=O)[O-])c1)c1cc2c(ccc3ccccc32)o1 |  |  |  |  |  | IC50 [2]: 3.91 µM (active); EC50 [3]: 52.6 µM (active); EC50 [4]: 148 µM (active); IC50 [5]: 4.06 µM (active) |
| COc1cccc(C#Cc2ccc([C@@H]3[C@@H](CO)N4C(=O)CN(C(=O)c5ccccc5)C[C@@H]34)cc2)c1 | 1190 nM (active) | 1530 nM (active) | 2.23 µM (active) | > 39 µM (inactive) | 2.3 µM (active) |  |
| CCCN1CCC2(CC1)CN(Cc1ccccc1OC)[C@H](CO)c1c2c2ccc(OC)cc2n1C | 681 nM (active) | 888 nM (active) | 1.49 µM (active) | > 39 µM (inactive) | 2.22 µM (active) | AC50 [11]: 25.7 µM (active) |
| Cc1cccc(-c2ccc([C@@H]3[C@H](CO)N4CCCCN(S(=O)(=O)c5ccccc5C)C[C@@H]34)cc2)c1 |  |  |  | 9.3 µM (active) | 0.845 µM (active) |  |
| CO[C@@H]1CN(C)C(=O)c2cc(NC(=O)c3nc4ccccc4s3)ccc2OC[C@@H](C)N(Cc2ccncc2)C[C@H]1C |  |  |  | 24.5 µM (active) | 5.88 µM (active) |  |
| O=C(Nc1ccccc1)N1CCCCN2[C@H](CO)[C@H](c3ccc(C#Cc4ccccc4)cc3)[C@@H]2C1 | 42.5 nM (active) | 38.6 nM (active) | 0.0378 µM (active) |  | < 0.3 µM (active) | AC50 [11]: > 100 µM (inactive) |

Source: ChEMBL document CHEMBL1201862, “PubChem BioAssay data set” (2004)
